In the supplement of paper PMC11208160:

assay: recombinant barcode read abundance after kanamycin selection (control-corrected) (log10(CPM+1)); higher = more efficient recombination; sequences stand for … in AGTGCAGAGAAAATCGGCCAGTTTTCTCTGCCTGCAGTCCGCATGCCGT…AGATTTATGCAGCGGACTGCCTTTCTCCCAAAGTGATAAACCGGACAGTATCATGGACCGGTTTTCCCGGTAATCCGTATTTGCAAGGTTGGTTTCACT; site = the 11-nt target
In short: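 Recombination efficiency draws on barcodes counted at recombinant junctions in a pooled E. coli screen of targets paired with IS621 bridge RNA target-binding loops. The counts were converted to counts per million, averaged and corrected against the chloramphenicol/ampicillin LB agar control, then reported as log10(CPM+1). Selection plates held chloramphenicol/ampicillin/kanamycin with 0.1 mM IPTG, with two replicates per condition.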
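Also: IS621 recombinase and bridge RNA in Escherichia coli cells.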

Point of comparison: “TTGAGGCCTTGGGTTCTAACCTGTTGCCT (site CTGAGGCCTAG)”, “recombinant barcode read abundance (log10)” value 0.0268. Against it:
- TTAGTTCCTTGGGTTCTAACCTGTTGCCT (site TTAGTTCCTAG) — higher, 0.634
- TTATAAGCTTGGGTTCTAACCTGTTGCCA (site GTATGAGCTTG) — within 0.2 log units, 0.0336
- TTATAAGCTTGGGTTCTAACCTGTTGCCA (site TTATAAGCTTG) — higher, 0.269
- TTATTCACTTGGGTTCTAACCTGTTGCCT (site TCATTGACTAG) — within 0.2 log units, 0.0352
- TTATTCACTTGGGTTCTAACCTGTTGCCT (site TTATTCACTAG) — higher, 1.48
- TTCAAGTCTTGGGTTCTAACCTGTTGCCT (site TTCAAGACTAG) — within 0.2 log units, 0.102
- TTCAAGTCTTGGGTTCTAACCTGTTGCCT (site TTCAAGCCTAG) — within 0.2 log units, 0.198
- TTCAAGTCTTGGGTTCTAACCTGTTGCCT (site TTCAAGGCTAG) — within 0.2 log units, 0.0708
- TTCAAGTCTTGGGTTCTAACCTGTTGCCT (site TTCAAGTCTAG) — higher, 0.33
- TTCACGTCTTGGGTTCTAACCTGTTGCCT (site TTCACGTCTAG) — within 0.2 log units, 0.202
- TTCACGTCTTGGGTTCTAACCTGTTGCCT (site TTCATGTCTAG) — within 0.2 log units, 0.0406
- TTCAGACCTTGGGTTCTAACCTGTTGCCT (site AGGTACACTGT) — within 0.2 log units, 0.0824
- TTCAGACCTTGGGTTCTAACCTGTTGCCT (site TTCAGACCTAG) — higher, 0.912
- TTCCAAACTTGGGTTCTAACCTGTTGCGG (site TTCCAAACTCC) — higher, 1.31
- TTCCAAACTTGGGTTCTAACCTGTTGCGG (site TTCCACACTCC) — within 0.2 log units, 0.193
- TTCCTATCTTGGGTTCTAACCTGTTGCCT (site TACCTATCTAG) — within 0.2 log units, 0.221
- TTCCTATCTTGGGTTCTAACCTGTTGCCT (site TCCCTATCTAG) — within 0.2 log units, 0.071
- TTCCTATCTTGGGTTCTAACCTGTTGCCT (site TGCCTATCTAG) — within 0.2 log units, 0.0749
- TTCCTATCTTGGGTTCTAACCTGTTGCCT (site TTCCTATCTAG) — higher, 0.354
- TTCGAGTCTTGGGTTCTAACCTGTTGCGG (site TGCGAGTCTAC) — within 0.2 log units, 0.0798
- TTCGAGTCTTGGGTTCTAACCTGTTGCGG (site TTCGAGTCTCC) — higher, 1.91
- TTCGCGCCTTGGGTTCTAACCTGTTGCCT (site TTCACGCCTAG) — within 0.2 log units, 0.0251
- TTCGCGCCTTGGGTTCTAACCTGTTGCCT (site TTCCCGCCTAG) — within 0.2 log units, 0.144
- TTCGCGCCTTGGGTTCTAACCTGTTGCCT (site TTCGCGCCTAG) — within 0.2 log units, 0.134
- TTCGCGCCTTGGGTTCTAACCTGTTGCCT (site TTCTCGCCTAG) — within 0.2 log units, 0.176
- TTCGGGCCTTGGGTTCTAACCTGTTGCCT (site ATCGGGCCTAG) — within 0.2 log units, 0.0878
- TTCGGGCCTTGGGTTCTAACCTGTTGCCT (site CTCGGGCCTAG) — within 0.2 log units, 0.0465
- TTCGGGCCTTGGGTTCTAACCTGTTGCCT (site GTCGGGCCTAG) — within 0.2 log units, 0.0582
- TTCGGGCCTTGGGTTCTAACCTGTTGCCT (site TTCGGGCCTAG) — within 0.2 log units, 0.169
- TTCTAGTCTTGGGTTCTAACCTGTTGCTA (site ACAAGACCTAT) — within 0.2 log units, 0.0562
- TTCTAGTCTTGGGTTCTAACCTGTTGCTA (site TTCTAGTCTTA) — higher, 0.416
- TTCTGCGCTTGGGTTCTAACCTGTTGCCT (site TTCTGAGCTAG) — within 0.2 log units, 0.0215
- TTCTGCGCTTGGGTTCTAACCTGTTGCCT (site TTCTGCGCTAG) — higher, 1.2
- TTCTGCGCTTGGGTTCTAACCTGTTGCCT (site TTCTGGGCTAG) — within 0.2 log units, 0.0626
- TTCTGCGCTTGGGTTCTAACCTGTTGCCT (site TTCTGTGCTAG) — within 0.2 log units, 0.191
- TTCTGGGCTTGGGTTCTAACCTGTTGCCT (site TTCTGAGCTAG) — within 0.2 log units, 0.172
- TTCTGGGCTTGGGTTCTAACCTGTTGCCT (site TTCTGCGCTAG) — within 0.2 log units, 0.0493
- TTCTGGGCTTGGGTTCTAACCTGTTGCCT (site TTCTGGGCTAG) — within 0.2 log units, 0
- TTCTGGGCTTGGGTTCTAACCTGTTGCCT (site TTCTGTGCTAG) — within 0.2 log units, 0.137
- TTGAAACCTTGGGTTCTAACCTGTTGCCT (site GACGCCTCTGC) — within 0.2 log units, 0.0146
- TTGAAACCTTGGGTTCTAACCTGTTGCCT (site TTGAAACCTAG) — higher, 1.04
- TTGAGGCCTTGGGTTCTAACCTGTTGCCT (site ATGAGGCCTAG) — within 0.2 log units, 0.059
- TTGAGGCCTTGGGTTCTAACCTGTTGCCT (site GTGAGGCCTAG) — within 0.2 log units, 0.0327
- TTGAGGCCTTGGGTTCTAACCTGTTGCCT (site TTGAGGCCTAG) — within 0.2 log units, 0.0305
- TTGAGTCCTTGGGTTCTAACCTGTTGCCT (site TTGAGTCCTAG) — higher, 1.04
- TTGAGTCCTTGGGTTCTAACCTGTTGCCT (site TTGGGTCCTAC) — higher, 0.319
- TTGATAGCTTGGGTTCTAACCTGTTGCTA (site ACCGCGTCTAT) — within 0.2 log units, 0.174
- TTGATAGCTTGGGTTCTAACCTGTTGCTA (site TTGATAGCTTA) — within 0.2 log units, 0.203
- TTGCAAACTTGGGTTCTAACCTGTTGCCT (site TTGCAAACTAG) — higher, 0.501
- TTGCAAACTTGGGTTCTAACCTGTTGCCT (site TTGCCAACTAG) — within 0.2 log units, 0.0256
- TTGCAAACTTGGGTTCTAACCTGTTGCCT (site TTGCGAACTAG) — within 0.2 log units, 0.0337
- TTGCAAACTTGGGTTCTAACCTGTTGCCT (site TTGCTAACTAG) — within 0.2 log units, 0.0349
- TTGCGAACTTGGGTTCTAACCTGTTGCAG (site GACGCGGCTAG) — within 0.2 log units, 0.0589
- TTGCGAACTTGGGTTCTAACCTGTTGCAG (site TTGCGAACTCT) — higher, 0.455
- TTGCGAACTTGGGTTCTAACCTGTTGCCT (site TTGCAAACTAG) — within 0.2 log units, 0.0904
- TTGCGAACTTGGGTTCTAACCTGTTGCCT (site TTGCCAACTAG) — higher, 0.269
- TTGCGAACTTGGGTTCTAACCTGTTGCCT (site TTGCGAACTAG) — higher, 0.868
- TTGCGAACTTGGGTTCTAACCTGTTGCCT (site TTGCTAACTAG) — within 0.2 log units, 0.0519
